# Legend:
# A1 and A2 receptors = details: selectivity of receptor affinity; cited from earlier work
# lipolysis = details: selective agonists of the A2 receptor subtype; cited from earlier work
# A2 receptor = details: relative to NECA; cited from earlier work
smiles,measurement,setting,value
COC[C@H]1C[C@@H](n2cnc3c(N[C@H]4CCN(c5ccc(C(F)(F)F)cn5)C4)ncnc32)[C@@H](O)[C@H]1O,melting point,,166 to 168 °C
"OC[C@H]1O[C@@H](n2cnc3c(NC4CCCC4)ncnc32)[C@H](O)[C@@H]1O [CPA, Cyclopentyladenosine]",A2/A1 ratio,A1 and A2 receptors,780
CCNC(=O)[C@H]1O[C@@H](n2cnc3c(N)nc(NCCc4ccc(CCC(=O)O)cc4)nc32)[C@H](O)[C@@H]1O [CGS 21680],antilipolytic activity,lipolysis,do not exhibit antilipolytic activity
Nc1nc(Nc2ccccc2)nc2c1ncn2[C@@H]1O[C@H](CO)[C@@H](O)[C@H]1O [CV-1808],A2/A1 ratio,A1 and A2 receptors,0.19
same,fold less potent than NECA in affinity for the A2 receptor,A2 receptor,10 fold
